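96-well plates; 48 h exposure; 5 concentrations. Endpoints by linear interpolation between flanking doses. Not reached: highest tested concentration assigned. At the GI50, growth is halved.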 Active and inactive are the calls of the source. No stated cut-off is given here; in the data, active = GI50 up to about 1.1 µM and inactive = higher.
Columns and labels:
Test in all cases: DTP human tumour cell line panel, 48 h
[1] = system: CAKI-1
[2] = system: DU-145
[3] = system: EKVX
[4] = system: HCC 2998
[5] = system: HCT-116
[6] = system: HL-60
[7] = system: MCF7
[8] = system: MDA-MB-435
[9] = system: NCI-H226
[10] = system: NCI-H23
[11] = system: NCI-H460
[12] = system: PC-3
[13] = system: RXF 393
[14] = system: SF-539
[15] = system: SK-MEL-28
[16] = system: SN12C
[17] = system: T47D
[18] = system: UACC-62
[19] = system: SNB-19

## CCOc1cc(NC(C)=O)ccc1C(=O)N/N=C/c1ccco1
[1]
  GI50: 76.6 µM (inactive)
[2]
  GI50: > 100 µM (inactive)
[3]
  GI50: > 100 µM (inactive)
[4]
  GI50: > 100 µM (inactive)
[5]
  GI50: > 100 µM (inactive)
[6]
  GI50: 27.9 µM (inactive)
[7]
  GI50: 22.3 µM (inactive)
[8]
  GI50: > 100 µM (inactive)
[9]
  GI50: > 100 µM (inactive)
[10]
  GI50: > 100 µM (inactive)
[11]
  GI50: 24.5 µM (inactive)
[12]
  GI50: > 100 µM (inactive)
[13]
  GI50: > 100 µM (inactive)
[14]
  GI50: 89.7 µM (inactive)
[15]
  GI50: > 100 µM (inactive)
[16]
  GI50: > 100 µM (inactive)
[17]
  GI50: > 100 µM (inactive)
[18]
  GI50: 77.3 µM (inactive)

## C/C(CC(O)(C(F)(F)F)C(F)(F)F)=N\N
[1]
  GI50: > 10 µM (inactive)
[2]
  GI50: > 10 µM (inactive)
[3]
  GI50: > 10 µM (inactive)
[4]
  GI50: > 10 µM (inactive)
[5]
  GI50: > 10 µM (inactive)
[6]
  GI50: > 10 µM (inactive)
[7]
  GI50: > 10 µM (inactive)
[8]
  GI50: > 10 µM (inactive)
[9]
  GI50: > 10 µM (inactive)
[10]
  GI50: > 10 µM (inactive)
[11]
  GI50: > 10 µM (inactive)
[12]
  GI50: > 10 µM (inactive)
[13]
  GI50: > 10 µM (inactive)
[14]
  GI50: > 10 µM (inactive)
[15]
  GI50: > 10 µM (inactive)
[16]
  GI50: > 10 µM (inactive)
[19]
  GI50: > 10 µM (inactive)
[17]
  GI50: > 10 µM (inactive)
[18]
  GI50: > 10 µM (inactive)

## Cc1cc(S(=O)(=O)NC2=Nc3ccccc3C(c3ccccc3)N2)c(S)cc1Cl (configuration not stated)
[1]
  GI50: 45.8 µM (inactive)
[2]
  GI50: > 100 µM (inactive)
[3]
  GI50: > 100 µM (inactive)
[4]
  GI50: > 100 µM (inactive)
[5]
  GI50: 7.13 µM (inactive)
[6]
  GI50: > 100 µM (inactive)
[7]
  GI50: > 100 µM (inactive)
[8]
  GI50: 31.7 µM (inactive)
[9]
  GI50: 17.4 µM (inactive)
[10]
  GI50: > 100 µM (inactive)
[11]
  GI50: 12.9 µM (inactive)
[12]
  GI50: 16.4 µM (inactive)
[13]
  GI50: 48.2 µM (inactive)
[14]
  GI50: > 100 µM (inactive)
[15]
  GI50: > 100 µM (inactive)
[16]
  GI50: 50.7 µM (inactive)
[19]
  GI50: 34 µM (inactive)
[17]
  GI50: 6.56 µM (inactive)
[18]
  GI50: > 100 µM (inactive)

## C=C(C)[C@@H]1CCc2c(c(C)cc(O)c(=O)c2O)C1
[1]
  GI50: 0.13 µM (active)
[2]
  GI50: 2.18 µM (inactive)
[3]
  GI50: 2.49 µM (inactive)
[4]
  GI50: 1.76 µM (inactive)
[5]
  GI50: 0.156 µM (active)
[6]
  GI50: 0.462 µM (active)
[7]
  GI50: 1.48 µM (inactive)
[8]
  GI50: 3.13 µM (inactive)
[9]
  GI50: 2.72 µM (inactive)
[10]
  GI50: 2.58 µM (inactive)
[11]
  GI50: 0.102 µM (active)
[12]
  GI50: 3.85 µM (inactive)
[13]
  GI50: 2.6 µM (inactive)
[14]
  GI50: 0.6 µM (active)
[15]
  GI50: 4.63 µM (inactive)
[16]
  GI50: 0.363 µM (active)
[19]
  GI50: 1.13 µM (inactive)
[17]
  GI50: 3.8 µM (inactive)
[18]
  GI50: 1.6 µM (inactive)

## CC1(C)CCC[C@@]2(C)C1CC[C@@]1(CO1)[C@@H]2/C=C\C(C=O)CC=O (some centres not stated)
[1]
  GI50: > 100 µM (inactive)
[2]
  GI50: > 100 µM (inactive)
[3]
  GI50: > 100 µM (inactive)
[4]
  GI50: > 100 µM (inactive)
[5]
  GI50: 62.2 µM (inactive)
[6]
  GI50: 21.6 µM (inactive)
[7]
  GI50: > 100 µM (inactive)
[8]
  GI50: > 100 µM (inactive)
[9]
  GI50: > 100 µM (inactive)
[10]
  GI50: > 100 µM (inactive)
[11]
  GI50: > 100 µM (inactive)
[12]
  GI50: > 70.3 µM (inactive)
[13]
  GI50: 99.8 µM (inactive)
[14]
  GI50: > 87.3 µM (inactive)
[15]
  GI50: > 100 µM (inactive)
[16]
  GI50: > 68.1 µM (inactive)
[19]
  GI50: > 100 µM (inactive)
[17]
  GI50: 99.3 µM (inactive)
[18]
  GI50: > 100 µM (inactive)

## COc1ccc(/N=N/C(=O)NC(CC(C)C)C(=O)NC(CC(C)C)C(=O)O)cc1 (configuration not stated)
[1]
  GI50: > 100 µM (inactive)
[2]
  GI50: 27.7 µM (inactive)
[3]
  GI50: > 100 µM (inactive)
[4]
  GI50: 30.9 µM (inactive)
[5]
  GI50: 86.5 µM (inactive)
[6]
  GI50: 17.5 µM (inactive)
[7]
  GI50: > 100 µM (inactive)
[8]
  GI50: 34.5 µM (inactive)
[9]
  GI50: > 100 µM (inactive)
[10]
  GI50: > 100 µM (inactive)
[11]
  GI50: 68.9 µM (inactive)
[12]
  GI50: 18.7 µM (inactive)
[13]
  GI50: > 100 µM (inactive)
[14]
  GI50: 4.81 µM (inactive)
[15]
  GI50: 17.8 µM (inactive)
[16]
  GI50: > 100 µM (inactive)
[19]
  GI50: > 100 µM (inactive)
[17]
  GI50: 26.9 µM (inactive)
[18]
  GI50: 16.6 µM (inactive)

## N#Cc1c2c([nH]c(=O)c1C#N)CCCC2
[1]
  GI50: > 100 µM (inactive)
[2]
  GI50: > 100 µM (inactive)
[3]
  GI50: > 100 µM (inactive)
[4]
  GI50: > 100 µM (inactive)
[5]
  GI50: > 100 µM (inactive)
[6]
  GI50: > 100 µM (inactive)
[7]
  GI50: > 100 µM (inactive)
[8]
  GI50: > 100 µM (inactive)
[9]
  GI50: > 100 µM (inactive)
[10]
  GI50: > 100 µM (inactive)
[11]
  GI50: > 100 µM (inactive)
[12]
  GI50: > 100 µM (inactive)
[13]
  GI50: > 100 µM (inactive)
[14]
  GI50: > 100 µM (inactive)
[15]
  GI50: > 100 µM (inactive)
[16]
  GI50: > 100 µM (inactive)
[19]
  GI50: > 100 µM (inactive)
[17]
  GI50: > 100 µM (inactive)
[18]
  GI50: > 100 µM (inactive)

— ChEMBL document CHEMBL1201862, “PubChem BioAssay data set” (2004)
